Source: patent US8664234B2, “Dihydrobenzoquinazolinone M1 receptor positive allosteric modulators” (Merck Sharp & Dohme Corp., priority 2010, dated 2014)

The molecules below were run against T1, acetylcholine muscarinic M1 receptor (CHOnfat/hM1 cells) (Homo sapiens, UniProt P11229) (assay: FLIPR intracellular calcium assay for M1 positive allosteric modulator activity (acetylcholine EC20, 3 nM)). Settings: 4 min preincubation, then EC20 acetylcholine (3 nM final), FLIPR Ca2+ readout, read-out: IP Value (inflection point).
T1 construct: expressed in transfected cells; host or cells: CHOnfat cells (CHO; also called CHOK1/hM1)
T1 sequence (P11229 1-460): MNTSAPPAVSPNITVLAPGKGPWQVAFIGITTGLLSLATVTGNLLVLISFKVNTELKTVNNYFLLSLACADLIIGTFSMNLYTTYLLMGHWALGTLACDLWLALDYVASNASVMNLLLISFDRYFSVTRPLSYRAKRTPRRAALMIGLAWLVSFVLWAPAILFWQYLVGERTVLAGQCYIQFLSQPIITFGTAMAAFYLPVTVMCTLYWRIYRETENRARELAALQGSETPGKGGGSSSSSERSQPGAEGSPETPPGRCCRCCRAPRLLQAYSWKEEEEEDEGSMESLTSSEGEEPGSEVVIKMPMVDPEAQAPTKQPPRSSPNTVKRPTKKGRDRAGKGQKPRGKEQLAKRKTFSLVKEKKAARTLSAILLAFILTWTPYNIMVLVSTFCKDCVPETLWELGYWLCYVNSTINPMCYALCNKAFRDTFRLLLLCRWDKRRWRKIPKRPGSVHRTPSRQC
Assay type: cell-based
Protocol: The assay studies the effect of one or several concentrations of test compounds on basal or acetylcholine-stimulated. Ca^2+ levels using FLJPR.
Compounds are prepared and subjected to a preincubation period of 4 min. Thereafter, a single EC20 concentration of acetylcholine is added to each well (3 nM final). The intracellular Ca^2+ level of each sample is measured and compared to an acetylcholine control to determine any modulatory activity.
Cells: CHOnfat/hM1, hM2, hM3 or hM4 cells are plated 24 hr before the assay at a density of 18,000 cells/well (100 μL) in a 384 well plate. CHOnfat/hM1 and CHOnfat/hM3 Growth Medium: 90% DMEM (Hi Glucose); 10% HI FBS; 2 mM L-glutamine; 0.1 mM NEAA; Pen-Strep; and 1 mg/ml Geneticin, are added. For M2Gqi5CHOnfat and M4Gqi5CHOnfat cells, an additional 600 ug/ml hygromycin is added.
Equipment: 384 well plate, 120 μL addition plate; 96-well Whatman 2 ml Uniplate Incubator, 37° C., 5% CO2; Skatron EMBLA-384 Plate Washer; Multimek Pipetting System; Genesis Freedom 200 System; Mosquito System; Temo Nanoliter Pipetting System; and FLIPR^384 Fluorometric Imaging Plate Reader System are used.
Buffers. Assay Buffer: Hanks Balanced Salt Solution, with 20 mM Hepes, 2.5 mM Probenecid (Sigma P-8761) first dissolved in 1 N NaOH, 1% Bovine Serum Albumin (Sigma A-9647). Dye Loading Buffer: Assay Buffer plus 1% Fetal Bovine Serum and Fluo-4AM/Pluronic Acid Mixture. 2 mM Fluo-4AM ester stock in DMSO (Molecular Probes F-14202) Concentration of 2 μM in buffer for a final concentration of 1 μM in Assay. 20% Pluronic Acid Solution stock, with concentration of 0.04% in Buffer, 0.02% in Assay.
65 μL of 2 mM Fluo-4AM are mixed with 130 μL of 20% Pluronic Acid. The resulting solution and 650 μL FBS is added to the assay buffer for a total volume of 65 mL. Positive Controls: 4-Br-A23187: 10 mM in DMSO; final concentration 10 μM. Acetylcholine: 10 mM in water, working stock at both 20 μM and 30 μM in assay buffer, final concentration of 10 μM. This is used to check the maximum stimulation of the CHOK1/hM1 cells, 20 μM (2×) acetylcholine is added in the preincubation part of the assay, and the 30 μM (3×) stock is added in the second part. (EC20) Acetylcholine: 10 mM in water, working stock of 9 nM (3×), and final concentration in assay is 3 nM. This is used after the preincubation with test compounds. Addition of the EC20 Acetylcholine to each well with a test compound will ascertain any modulator activity. 24 wells contain 3 nM Acetylcholine alone as a control.
Determining Activity of Putative Compounds:
Screening Plate Compounds are titrated in 96-well plates (columns 2-11), 100% DMSO, started at a concentration of 15 mM (150× stock concentration), and 3-fold serial dilutions using Genesis Freedom200 System. Four 96-well plates are combined into a 384-well plate using Mosquito Nanoliter Pipetting System by transferring 1 μl of serial diluted compounds to each well, and 1 mM acetylcholine (100× stock concentration) were added as a control. Using Temo, 49 μl assay buffer is added to each well of the 384-well plate right before assay.
In a 96-well Whatman 2 ml Uniplate, 9 nM Acetylcholine (3×) is pipetted into wells corresponding to the screening compounds, and into control wells. The 30 μM acetylcholine control (3×) is added into control wells, and the 3× agonist plate is transferred into a 384 well plate.
Cells are washed three times with 100 μL of buffer, leaving 30 μL of buffer in each well. Using Multimek, 30 μL of Dye Loading Buffer is added into each well and incubated at 37° C., 5% CO2 for up to one hr.
After 60 min, the cells are washed three times with 100 μL of buffer, leaving 30 μL of buffer in each well. The cell plate, screening plate, and agonist addition plates are placed on the platform in the FLIPR and the door closed. A signal test to check background fluorescence and basal fluorescence signal is performed. Laser intensity is adjusted if necessary. […]

Row | EC50 | SMILES
1 | 2.7 nM | CN1CN([C@H]2CCOC[C@@H]2O)C(=O)c2cc(Cc3ccnc(CF)c3)c3ccccc3c21 [Example 6, 1,5-Anhydro-2,3-dideoxy-3-[6-{[2-(fluoromethyl)pyridin-4-yl]methyl}-1-methyl-4-oxo-1,4-dihydrobenzo[h]quinazolin-3 (2H)-yl]-L-threo-pentitol]
2 | 2.6 nM | CN1CN([C@H]2CCOC[C@@H]2O)C(=O)c2cc(Cc3ccnc(C(F)F)c3)c3ccccc3c21 [Example 7, 1,5-anhydro-2,3-dideoxy-3-[6-{[2-(difluoromethyl)pyridin-4-yl]methyl}-1-methyl-4-oxo-1,4-dihydrobenzo[h]quinazolin-3(2H)-yl]-L-threo-pentitol]

The next lines start with the molecule.

Row | SMILES | EC50
3 | Cn1ccc2c(Cc3cc4c(c5ccccc35)NCN([C@H]3CCOC[C@@H]3O)C4=O)cccc21 [Example 1, 1,5-Anhydro-2,3-dideoxy-3-{6-[(1-methyl-1H-indol-4-yl)methyl]-4-oxo-1,4-dihydrobenzo[h]quinazolin-3 (2H)-yl}-L-threo-pentitol] | 15 nM
4 | CN1CN([C@H]2CCOC[C@@H]2O)C(=O)c2cc(Cc3ccc(Cl)nc3)c3ccccc3c21 [Example 2, 1,5-Anhydro-3-{6-[(6-chloropyridin-3-yl)methyl]-1-methyl-4-oxo-1,4-dihydrobenzo[h]quinazolin-3(2H)-yl}-2,3-dideoxy-L-threo-pentitol] | 6.3 nM
5 | CSc1ccc(Cc2cc3c(c4ccccc24)NCN([C@H]2CCOC[C@@H]2O)C3=O)cn1 [Example 3, 1,5-Anhydro-2,3-dideoxy-3-[6-{[6-(methylsulfanyl)pyridin-3-yl]methyl}-4-oxo-1,4-dihydrobenzo[h]quinazolin-3(2H)-yl]-L-threo-pentitol] | 11.5 nM
6 | Cc1ccc(Cc2cc3c(c4ccccc24)N(C)CN([C@H]2CCCC[C@@H]2O)C3=O)cn1 [Example 4, 3-[(1S,2S)-2-Hydroxycyclohexyl]-1-methyl-6-[(6-methylpyridin-3-yl)methyl]-2,3-dihydrobenzo[h]quinazolin-4(1H)-one] | 4 nM
7 | CCCN1CN([C@H]2CCCC[C@@H]2O)C(=O)c2cc(Cc3ccc(C)nc3)c3ccccc3c21 [Example 5, 3-[(1S,2S)-2-Hydroxycyclohexyl]-6-[(6-methylpyridin-3-yl)methyl]-1-propyl-2,3-dihydrobenzo[h]quinazolin-4(1H)-one] | 1170 nM
